Laboratory results published in patent US5118681A (priority 1989, dated 1992).
In brackets after ≈: the same amount, converted by molar mass. Where two headings read alike, the source gives them in different places.

What was measured:
[1] = system: Pseudoperonospora cubensis; experiment: whole plant or invertebrate; assay type: in vivo
[2] = system: Aspergillus niger (A.n); experiment: MIC, broth two-fold serial dilution (Table 3), A.n; assay type: cell-based; settings: read-out: MIC A.n
Source text: (§1) A minimum inhibitory concentration (MIC) value is obtained using a broth, two-fold serial dilution test performed as follows: A stock solution or dispersion of the test compound, typically at a concentration of 1%, is made in a 5:3:2 solvent solution of acetone, methanol, and water. A volume of the stock solution is dispensed into culture media to give an initial starting test concentration of 500 ppm compound.
(§2) When the test is ready to be done, each vessel in the dilution series, except the first vessel, contains an equal volume of compound free broth. The first vessel contains twice the volume of broth with the starting concentration of test compound. One half of the broth from the first vessel is transferred to the second vessel. After being mixed, one half the resulting volume is removed from the second vessel and transferred to the third vessel. The entire cycle is repeated sufficiently to give a series of concentrations amounting to 500, 250, 125, 63, 31, 16, 8, and 4 ppm, respectively.
(§3) Each vessel is then inoculated with a cell suspension of the appropriate test organism. Bacteria are grown in broth and fungi on agar slants for a time and at a temperature appropriate to the species being tested. At the end of the growth period, the broth is vortexed to disperse the cells. In the case of fungi, the spores are harvested by pipetting water onto the slant and dislodging the spores with a sterile loop. The cell/spore suspension is standardized by controlling incubation time, temperature, and the volume of the diluent. The suspension is then used to inoculate the vessels containing the broth compound. The vessels are then incubated at the appropriate temperature. After the incubation, the vessels are examined for growth/no growth. The minimum inhibitory concentration (MIC) is defined as the lowest concentration of compound that results in complete inhibition of growth of the test organism.

[3] = system: Escherichia coli (E.c); experiment: MIC, broth two-fold serial dilution (Table 3), E.c; assay type: cell-based; settings: read-out: MIC E.c
Source text: as §1, §2, §3
Escherichia coli (E.c), gram negative

[4] = system: Piricularia oryzae; experiment: whole plant or invertebrate; assay type: in vivo
[5] = system: Pseudomonas aerugenosa (Ps.ae); experiment: MIC, broth two-fold serial dilution (Table 3), Ps.ae; assay type: cell-based; settings: read-out: MIC Ps.ae
Source text: as §1, §2, §3
Pseudomonas aerugenosa (Ps.ae), gram negative

[6] = system: Staphylococcus aureus (S.a); experiment: MIC, broth two-fold serial dilution (Table 3), S.a; assay type: cell-based; settings: read-out: MIC S.a
Source text: as §1, §2, §3
Staphylococcus aureus (S.a), gram positive

[7] = system: A.n; experiment: Minimum Inhibitory Concentration Test, alternate (Table 4), A.n; assay type: cell-based, Aspergillus niger; settings: TSB, 72 hours; for MIC: Aspergillus niger
In short: (§4)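 Compound in acetone was diluted into TSB and serially diluted 1:1 from 250 ppm down to 0.8 ppm, in duplicate. Plates were inoculated with diluted 24 h culture and incubated 3 days at 30° C; MIC recorded as lowest concentration with no growth.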

[8] = system: Aureobasidium pullulans (A.p); experiment: MIC, broth two-fold serial dilution (Table 3), A.p; assay type: cell-based; settings: read-out: MIC A.p
Source text: as §1, §2, §3
Aureobasidium pullulans (A.p)

[9] = system: ps.fl bacteria; experiment: Speed of Kill (SOK) test, 4 h, synthetic hard water (Table 3); assay type: cell-based; settings: Pseudomonas fluorescens, read-out: SOK (concentration at which compound killed >99.999% of the cells)
Source text: The Speed of Kill (SOK) Test measures the loss of cell viability in an aqueous suspension of bacterial cells during a four hour period when these cells are contacted with a defined concentration of the test compound in synthetic hard water (SHW). A stock solution or dispersion of the test compound, typically at a concentration of 1%, is made in a 5:3:2 solvent solution of acetone, methanol, and water. The SHW is made by taking one liter of sterile deionized water and adding the following solutions to it:
1. 2 ml of a solution of 31.74 g of MgCl2 and 73.99 g of CaCl2 in 1000 ml of sterile distilled water which has been heat sterillized.
2. 4 ml of a solution of 56.03 g of NaHCO3 in 1000 ml of water which has been filter sterillized.
The combined solution is then filter sterilized to yield the SHW. A volume of the stock solution is dispensed into the SHW to give an initial test compound starting concentration of 500 ppm.
as §2, with “run,” for “done,”, “the SHW mixture with the test compound.” for “compound free broth.”, “SHW” for “broth”
Each vessel is then inoculated with a cell suspension of the ps.fl bacteria. The bacteria were grown on a 1% agar slant tube and incubated for 18-24 hours at 30° C. Thereafter, the tube is washed with four ml of sterile water. This was is diluted to a density of 60 to 80 Nephlolmeter Turbidity Units (NTU). To 100 ml of the SHW containing the various concentrations of the test compound is added 0.75 ml of inoculum from the 60-80 NTU wash with good mixing. After 4 hours from the time of addition at 30° C., 5 μl of solution is transferred to 100 μl of a broth solution in order to recover any living cells. This mixture is incubated for 24 hours at 30° C. before noting the concentration in ppm at which each compound killed >99.999% of the cells in the SHW solution.

[10] = system: Phytophthora infestans; experiment: whole plant or invertebrate; assay type: in vivo; settings: for pest or weed control at 200 ppm / pest or weed control at 300 ppm / pest or weed control at 100 ppm: Phytophthora infestans, in Solanum lycopersicum, 96 h, read-out: % control TLB
[11] = system: Pseudomonas fluorescens; experiment: Minimum Inhibitory Concentration Test, alternate (Table 4), Ps.fl; assay type: cell-based; settings: TSB, 72 hours, 30° C; for MIC: Pseudomonas fluorescens
In short: as §4

[12] = system: Pseudomonas fluorescens (Ps.fl); experiment: MIC, broth two-fold serial dilution (Table 3), Ps.fl; assay type: cell-based; settings: read-out: MIC Ps.fl
Source text: as §1, §2, §3
Pseudomonas fluorescens (Ps.fl), gram negative

[13] = system: Erysiphe graminis (f. sp. tritici); experiment: whole plant or invertebrate; assay type: in vivo
[14] = system: Puccinia graminis (f. sp. tritici Race 15B-2); experiment: whole plant or invertebrate; assay type: in vivo; settings: 336 h, read-out: % control WSR
[15] = system: Pellicularia filamentosa (f. sp. sasiki); experiment: whole plant or invertebrate; assay type: in vivo
[16] = system: Puccinia recondita (f. sp. tritici Races PKB and PLD); experiment: whole plant or invertebrate; assay type: in vivo
[17] = system: Pseudomonas fluorescens; experiment: Speed of Kill Test, alternate, 24 h, synthetic hard water (Table 4); assay type: cell-based; settings: Ps.fl in synthetic hard water, 100 ppm
[18] = Pseudoperonospora cubensis, in Cucumis sativus, 168 h, read-out: % control CDM
[19] = Table 3, broth two-fold serial dilution
[20] = Pyricularia oryzae, read-out: % control RB
[21] = Table 3, Ps.fl in synthetic hard water, 4 hours, 30° C
[22] = Blumeria graminis, read-out: % control WPM
[23] = Puccinia recondita, 240 h, read-out: % control WLR

Compound	pest or weed control at 200 ppm [1, 18] [%]	MIC [2] [µg/mL]	MIC [3, 19] [µg/mL]	pest or weed control at 200 ppm [4, 20] [%]	MIC [5] [µg/mL]	MIC [6, 19] [µg/mL]	MIC [7] [µg/mL]	MIC [8, 19] [µg/mL]	MBC [9, 21] [µg/mL]	MIC [11] [µg/mL]	MIC [12, 19] [µg/mL]	pest or weed control at 300 ppm [13, 22] [%]	other results
CCCCCCCCNC(=O)/C=C\SC(C(C)=O)C(C)=O [Example 1, N-n-octyl-cis-3-[3-(2,4-pentanedionyl)thio]acrylamide]	100	8 (≈ 25.5 µM)	> 500	98	< 4	< 4	> 500	< 4	> 500	> 500	> 500	25	pest or weed control at 200 ppm [10]: 100%; pest or weed control at 100 ppm [14]: 50%
CCCCCCCCNC(=O)/C(Cl)=C(/Cl)SC(C(C)=O)C(C)=O [Example 2, N-n-octyl-2,3-dichloro-cis-3-[3-(2,4-pentanedionyl)thio]acrylamide]		8 (≈ 20.9 µM)	> 500		< 4	< 4	> 500	< 4	> 500	> 500	> 500	78	pest or weed control at 300 ppm [1, 18]: 85%; pest or weed control at 300 ppm ([15]; 120 h, read-out: % control RSB): 0%; pest or weed control at 300 ppm [4, 20]: 0%; pest or weed control at 300 ppm [10]: 10%; pest or weed control at 150 ppm [14]: 85%
CC(=O)C(S/C(Cl)=C(/Cl)C(=O)NC1CCCCC1)C(C)=O [Example 6, N-cyclohexyl-2,3-dichloro-cis-3-[3-(2,4-pentanedionyl)thio]acrylamide]	85	125 (≈ 355 µM)	500 (≈ 1420 µM)	70	32 (≈ 90.8 µM)	16 (≈ 45.4 µM)	> 500	< 4	> 500	> 500	> 500	0	pest or weed control at 200 ppm ([15]; 120 h, read-out: % control RSB): 0%; pest or weed control at 300 ppm [10]: 0%; pest or weed control at 300 ppm [14]: 0%
CCCCCCCCNC(=O)/C=C\SC(C(=O)NCCCCCCCC)C(=O)OCC (stereo not drawn) [Example 18, N-n-octyl-cis-3-[2-(ethyl-N-n-octylmalonamido)thio]acrylamide]	97	< 4		25	> 500		> 500			> 500			pest or weed control at 300 ppm ([15]; 120 h, read-out: % control RSB): 90%; MIC [3]: 250 µg/mL (≈ 547 µM); pest or weed control at 200 ppm [16, 23]: 74%; MIC [6]: 8 µg/mL (≈ 17.5 µM); MIC [8]: < 4 µg/mL; MBC ([9]; 4 h): 16 µg/mL (≈ 35 µM); pest or weed control at 200 ppm [10]: 92%; MIC [12]: < 4 µg/mL; pest or weed control at 200 ppm [13, 22]: 0%
CCCCCCCCNC(=O)/C=C\SC(C(=O)Nc1cc(C)ccc1Cl)C(=O)OCC (stereo not drawn) [Example 42, N-n-octyl-cis-3-{2-[ethyl-N-(2-chloro-5-methylphenyl)malonamido]thio}acrylamide]		< 4	500 (≈ 1070 µM)		> 500	8 (≈ 17.1 µM)		16 (≈ 34.1 µM)	125 (≈ 266 µM)		8 (≈ 17.1 µM)		pest or weed control at 100 ppm [10]: 91%
CCCCCCCCNC(=O)/C=C\SC(C(=O)NCc1cccnc1)C(=O)OCC (stereo not drawn) [Example 49, N-n-octyl-cis-3-{2-[ethyl-N-((3-pyridyl)methyl)malonamido]thio}acrylamide]		< 4	> 500		< 4	< 4		< 4	> 500		> 500		pest or weed control at 100 ppm [1, 18]: 85%; pest or weed control at 100 ppm ([15]; 120 h, read-out: % control RSB): 0%; pest or weed control at 100 ppm [4, 20]: 0%; pest or weed control at 100 ppm [16, 23]: 0%; pest or weed control at 100 ppm [10]: 90%; pest or weed control at 100 ppm [13, 22]: 50%
CCCCCCCCNC(=O)/C=C\SC(C(=O)OCC)C(=O)c1ccccc1 (stereo not drawn) [Example 69, N-n-octyl-cis-3-[2-(ethoxy-3-phenyl-3-oxopropanoyl)thio]acrylamide]		125 (≈ 308 µM)			32 (≈ 78.9 µM)								MIC [3]: 500 µg/mL (≈ 1230 µM); MIC [6]: 16 µg/mL (≈ 39.5 µM); MIC [8]: < 4 µg/mL; MBC ([9]; 4 h): > 500 µg/mL; MIC [12]: > 500 µg/mL
N-n-octyl-cis-3-[2-(N-benzyl-N'-n-octylmalonodiamido)thio]acrylamide [Example 61]													% control CDM ([1]; in vivo): 99%; % control RSB ([15]; in vivo): 0%; % control RB ([4]; in vivo): 0%; % control WLR ([16]; in vivo): 0%; MIC A.n [7]: > 250 ppm; SOK [17]: > 100 ppm; % control TLB ([10]; 100 ppm application rate): 0%; MIC Ps.fl [11]: > 250 ppm; % control WPM ([13]; in vivo): 0%
